Data on 12 compounds can be found in patent US20080311076A1, “Morpholinylanilinoquinazoline Derivatives For Use As Antiviral Agents” (ARROW THERAPEUTICS LIMITED, priority 2004, published 2008).

As usually defined, the pIC50 is the IC50 on a negative log10 scale, so that one unit is a factor of ten. A higher pIC50 goes with a small IC50.

pIC50: −log10 of the molar value.

For this assay, the system named is HCV replicon cells Huh 9B. The experiment in a line: HCV replicon assay (luciferase) in Huh 9B replicon cells. The format is cell-based. Particulars: Hepatitis C virus; concentration reducing replicon level (luciferase activity) by 50% vs untreated cell control; 72 h incubation. As to the method: HCV replicon cells Huh 9B (ReBlikon), containing the firefly luciferase—ubiquitin—neomycin phosphotransferase fusion protein and EMCV-IRES driven HCV polyprotein with cell culture adaptive mutations.
Cells were cultured at 37° C. in a 5% CO2 environment and split twice a week on seeding at 2×10E6 cells/flask on day 1 and 1×10E6 3 days later. Some 0.25 mg/ml G418 was added to the culture medium (125 ul per 25 ml) but not the assay medium.
The culture medium consisted of DMEM with […] glucose and glutamax (Gibco 61965-026) supplemented with 1× non-essential amino acids, penicillin (100 IU/ml)/streptomycin (100 μg/ml), FCS (10%, 50 ml) and 1 mg/ml G418 (Invitrogen cat no 10131-027) & 10% foetal calf serum.
A flask of cells was trypsinised and a cell count carried out. Cells were diluted to 100,000 cells/ml and 100 μl of this used to seed one opaque white 96-well plate (for the replicon assay) and one flat-bottomed clear plate (for the tox assay) for every seven compounds to be tested for IC50. Wells G12 and H12 were left empty in the clear plate as the blank. Plates were then incubated at 37° C. in a 5% CO2 environment for 24 h.
On the following day compound dilutions are made up in medium at twice their desired final concentration in a clear round bottomed plate. All dilutions have a final DMSO concentration of 1%.
Once the dilution plate had been made up, controls and compounds were transferred to the assay plate (containing the cells) at 100 μl/well in duplicate plates.
Exception: in the white (replicon) plate, no compound was added to wells A1 and A2 and 100 μl of 1% DMSO was added to these instead. In the clear (Tox) plate, wells E12 & F12 only contained the DMSO control. Plates were then incubated at 37° C. with 5% CO2 for 72 h.
At the end of the incubation time, the cells in the white plate were harvested by washing with 200 μl/well of warm (37° C.) PBS and lysed with 20 μl cell culture lysis buffer (Promega). After 5 min incubation @ RT, luciferin solution was added to the luciferase assay buffer (LARB at 200 μl per 10 ml LARB. The M injector of the microplate luminometer (Lmax, Molecular Devices) was primed with […] injections. Plate were inserted into the luminometer and 100 μl luciferase assay reagent was added by the injector on the luminometer. The signal was measured using a 1 second delay followed by a 4 second measurement programme. The IC50, the concentration of the drug required for reducing the replicon level by 50% in relation to the untreated cell control value, can be calculated from the plot of the percentage reduction of the luciferase activity vs. drug concentration.
Background: In antiviral work, replicon cells carry a viral genome segment that copies itself.
For `FC(F)(F)c1cc(N2CCOCC2)ccc1Nc1ncnc2ccc(-c3cccs3)cc12` [Example 40, (4-Morpholin-4-yl-2-trifluoromethyl-phenyl)-(6-thiophen-2-yl-quinazolin-4-yl)-amine], the pIC50 was above 6.00.
Compound `COc1cc(Nc2ncnc3ccc(I)cc23)ccc1N1CCOCC1` [Example 41, (6-Iodo-quinazolin-4-yl)-(3-methoxy-4-morpholin-4-yl-phenyl)-amine] had a pIC50 above 5.30.
Consider `COc1cc(Nc2ncnc3ccc(-c4cccs4)cc23)ccc1N1CCOCC1` [Example 42, (3-Methoxy-4-morpholin-4-yl-phenyl)-(6-thiophen-2-yl-quinazolin-4-yl)-amine], for which the pIC50 was above 6.00.
For `Cc1cc(N2CCOCC2)ccc1Nc1ncnc2ccc(-c3cccs3)cc12` [Example 43, (2-Methyl-4-morpholin-4-yl-phenyl)-(6-thiophen-2-yl-quinazolin-4-yl)-amine] the value was above 6.00; for `Cc1cc(Nc2ncnc3ccc(-c4cccs4)cc23)ccc1N1CCOCC1` [Example 44, (3-Methyl-4-morpholin-4-yl-phenyl)-(6-thiophen-2-yl-quinazolin-4-yl)-amine], above 6.00.
For `CCN(c1ccc(N2CCOCC2)cc1)c1ncnc2ccc(-c3cccs3)cc12` [Example 45, Ethyl-(4-morpholin-4-yl-phenyl)-(6-thiophen-2-yl-quinazolin-4-yl)-amine], the pIC50 was above 5.30.
As for `CN(c1ccc(N2CCOCC2)cc1)c1ncnc2ccc(I)cc12` [Example 46, (6-Iodo-quinazolin-4-yl)-methyl-(4-morpholin-4-yl-phenyl)amine], the figure is above 6.00; as for `CC(C)CCN(c1ccc(N2CCOCC2)cc1)c1ncnc2ccc(I)cc12` [Example 47, (6-Iodo-quinazolin-4-yl)-(3-methyl-butyl)-(4-morpholin-4-yl-phenyl)-amine], above 5.30.
`CC(C)N(c1ccc(N2CCOCC2)cc1)c1ncnc2ccc(-c3cccs3)cc12` [Example 48, Isopropyl-(4-morpholin-4-yl-phenyl)-(6-thiophen-2-yl-quinazolin-4-yl)-amine]: the pIC50 was above 5.30.
For `CC(C)CCN(c1ccc(N2CCOCC2)cc1)c1ncnc2ccc(-c3cccs3)cc12` [Example 49, (3-Methyl-butyl)-(4-morpholin-4-yl-phenyl)-(6-thiophen-2-yl-quinazolin-4-yl)-amine] the value was above 5.30; for `c1ccc(COc2ccccc2-c2ccc3ncnc(Nc4ccc(N5CCOCC5)cc4)c3c2)cc1` [Example 50, [6-(2-Benzyloxy-phenyl)-quinazolin-4-yl]-(4-morpholin-4-yl-phenyl)-amine], above 5.30.
`c1ccc(COc2ccc(-c3ccc4ncnc(Nc5ccc(N6CCOCC6)cc5)c4c3)cc2)cc1` [Example 51, [6-(4-Benzyloxy-phenyl)-quinazolin-4-yl]-(4-morpholin-4-yl-phenyl)-amine] showed a pIC50 above 5.30.
